Measured values taken from patent US10940218B2, “Treatment of meningiomas using phenylbenzothiazole, stilbene, biphenylalkyne, or pyridine derivatives” (MAYO FOUNDATION FOR MEDICAL EDUCATION AND RESEARCH, priority 2012, dated 2021).
“Also recorded” adds a separate entry of the source.

Key:
meningiomas [1] = assay: FDG PET/CT imaging of meningiomas; assay type: in vivo, human
From the text: (§1) An Alzheimer's imaging database of two hundred forty-one patients was reviewed. […] MRI reports of all patients were reviewed for possible meningiomas and other tumors. […] Tumors smaller than 7 millimeters are generally considered too small to be evaluated by PET or PET/CT.
(§2) The radiologic interpretations of MRI, CT and FDG PET/CT scans from a population of 834 people who participated in the population-based Mayo Clinic Study of Aging (MCSA) from March 2006 through September 2011 were reviewed for the presence of tumors or other brain lesions. (See, Kantarci K, Lowe V, Przybelski S A, et al., “Magnetic resonance spectroscopy, {beta}-amyloid load, and cognition in a population-based sample of cognitively normal older adults”, Neurology 2011; 77:951-8; and Roberts R O, Geda Y E, Knopman D S, et al., “The Mayo Clinic Study of Aging: design and sampling, participation, baseline measures and sample characteristics”, Neuroepidemiology 2008; 30:58-69.) Participants were randomly selected for recruitment in the MCSA from a population of older adult residents of Olmsted County, Minn., USA. Those with neurological, psychological or systemic illnesses were not excluded. Individuals with dementia, or those unable to be imaged for medical reasons were excluded. All patients were imaged with C11-PiB PET/CT, F18-FDG PET/CT and non-contrast MRI at least once as part of the study. Any additional patient imaging and clinical history was then reviewed.
(§3) PET imaging was performed as part of the Mayo Clinic Study of Aging as previously described. (See Kantarci K, Lowe V, Przybelski S A, et al., “Magnetic resonance spectroscopy, {beta}-amyloid load, and cognition in a population-based sample of cognitively normal older adults”, Neurology 2011; 77:951-8.) PiB PET/CT, then FDG PET/CT were performed on the same day. PET/CT imaging was performed on a 690XT or DRX PET/CT tomograph (GE Healthcare). The PET sinograms were reconstructed using a fully-3D OSEM algorithm into a 30 cm field of view; the pixel size was 1.2 mm and the slice thickness was 3.27 mm (DRX) or 1.96 mm (690XT). CT imaging was obtained immediately prior to PET acquisition and used for attenuation correction. Cerebral PiB retention, a marker of amyloid deposition, was measured as previously described. (See Kantarci K, Lowe V, Przybelski S A, et al. “Magnetic resonance spectroscopy, {beta}-amyloid load, and cognition in a population-based sample of cognitively normal older adults”, Neurology 2011; 77:951-8.)

non-meningioma tumors [2] = assay: FDG PET/CT imaging of non-meningioma tumors; assay type: in vivo, human
From the text: as §1, §2
PET imaging was performed as part of the Mayo Clinic Study of Aging as previously described. (See Kantarci K, Lowe V, Przybelski S A, et al., “Magnetic resonance spectroscopy, {beta}-amyloid load, and cognition in a population-based sample of cognitively normal older adults”, Neurology 2011; 77:951-8.) PiB PET/CT, then FDG PET/CT were performed on the same day. PET/CT imaging was performed on a 690XT or DRX PET/CT tomograph (GE Healthcare). […] Cerebral PiB retention, a marker of amyloid deposition, was measured as previously described. […]

meningiomas [3] = assay: PiB PET/CT imaging of meningiomas in patients; assay type: in vivo, human
From the text: (§4) An Alzheimer's imaging database of two hundred forty-one patients was reviewed. […] All patients had been imaged by at least one MRI, as well as by FDG-PET/CT and PET/CT using the compound of formula (V). MRI reports of all patients were reviewed for possible meningiomas and other tumors. […] The diagnostic confidence of the radiologists interpreting the studies varied slightly, depending on factors such as tumor location and previous imaging. […] Tumors smaller than 7 millimeters are generally considered too small to be evaluated by PET or PET/CT. This is an excepted limitation of PET or PET/CT as a modality. […] None of the meningiomas in the series would be classified as atypical or aggressive based on MRI or CT imaging. One presumed extracranial schwannoma was seen, showing mild uptake on FDG-PET/CT, but no uptake on PET/CT using the compound of formula (V).
as §2
(§5) Tumors found in any of the subjects were then categorized as possible meningiomas or non-meningiomas based on the reading of the reporting neuroradiologist. Possible meningiomas were further reviewed as a group. A more strict set of criteria were applied to select a subset of the possible meningiomas that were designated “high-likelihood meningiomas” for further analysis and were defined by (1) tumors that were confirmed to be enhancing on diagnostic MRI (obtained separately for clinical purposes) and (2) tumors that had greater than two years of follow-up imaging confirming no growth or slow growth (1-2 mm per year). When the lead diagnosis of the identified tumor was metastasis, the diagnosis was confirmed by biopsy or autopsy. All tumors smaller than 5 mm thick were excluded, given they fall below the generally accepted lower limits of PET/CT resolution.
(§6) PET imaging was performed as part of the Mayo Clinic Study of Aging as previously described. (See Kantarci K, Lowe V, Przybelski S A, et al., “Magnetic resonance spectroscopy, {beta}-amyloid load, and cognition in a population-based sample of cognitively normal older adults”, Neurology 2011; 77:951-8.) PiB PET/CT, then FDG PET/CT were performed on the same day. PET/CT imaging was performed on a 690XT or DRX PET/CT tomograph (GE Healthcare). The PET sinograms were reconstructed using a fully-3D OSEM algorithm into a 30 cm field of view; the pixel size was 1.2 mm and the slice thickness was 3.27 mm (DRX) or 1.96 mm (690XT). CT imaging was obtained immediately prior to PET acquisition and used for attenuation correction. Cerebral PiB retention, a marker of amyloid deposition, was measured as previously described. (See Kantarci K, Lowe V, Przybelski S A, et al. “Magnetic resonance spectroscopy, {beta}-amyloid load, and cognition in a population-based sample of cognitively normal older adults”, Neurology 2011; 77:951-8.) […]

[4] = test system: meningioma tissue sections; assay: Fluorescent tissue staining of meningioma sections; assay type: binding, human; conditions: for location of staining within meningioma cells: tissue sections
From the text: (§7) The Department of Pathology, Mayo Clinic Rochester Tumor Tissue Registry, contains tumor samples procured by autopsy and surgery. Meningiomas, brain metastases and other tumors were identified by searching CoPath, a Mayo Clinic electronic pathology database of tumors collected since 1982. Tumor type was confirmed by viewing H&E stained slides under a light microscope.
(§8) Fresh cut 5 μm thick sections were used. Each staining run included normal brain and Alzheimer diseased brain as controls. Fluorescent tissue staining and microscopy was performed similar to methods previously described at Ikonomovic M D, Klunk W E, Abrahamson E E, et al., “Post-mortem correlates of in vivo PiB-PET amyloid imaging in a typical case of Alzheimer's disease”, Brain: A Journal Of Neurology 2008; 131:1630-45. Meningioma and other brain tumor sections were stained with 100 nM CN-PiB, 100 nM of unlabeled PiB or with saline alone as a negative control. The staining protocol was as follows: deparaffinization and rehydration, 0.25% KMnO4 incubation, water wash, 1% K2S2O5/1% Oxalic Acid incubation, water wash, PBS wash, 6-CN-PiB/PiB/saline incubation, PBS wash, NaCl, K2HPO4, and KH2PO4 incubation, water wash, mount coverslip, and storage at 4° C. in the dark until imaged. Slides were imaged within five days of staining. Immunohistochemical staining of meningiomas for beta amyloid protein was performed using NCL-B-Amyloid mouse anti-human antibody per standard clinical protocol.
(§9) Tissue stain images were obtained on a Zeiss 510 confocal microscope with excitation at 405 nm, a 420-480 bandpass filter, and the laser set at 15% power.
(§10) Images were obtained with a C-Apochromat 40×/1.2 W lens.

non-meningioma tumors [5] = assay: PiB PET/CT imaging of non-meningioma tumors and lesions in patients; assay type: in vivo, human
From the text: as §4, §2, §5, §6

normal adjacent tissues = assay: PiB PET/CT activity of normal adjacent tissues; assay type: in vivo, human
From the text: as §2, §3

[6] = test system: other intracranial tumors and brain tissue sections; assay: Fluorescent tissue staining of other tumors and brain tissue; assay type: binding, human
From the text: as §7, §8, §9, §10

[7] = Example 1, presumed extracranial schwannoma
[8] = 16 high-likelihood meningiomas in 15 patients, C11-PiB PET/CT
[9] = 100 nM stain, 5 μm sections, fluorescent microscopy

## Fluorodeoxyglucose [FDG]
Meningiomas [1]; Example 1, four meningiomas
  uptake on FDG-PET/CT: no uptake
Meningiomas [1]; Example 1, two meningiomas
  uptake on FDG-PET/CT: mild uptake
Meningiomas [1]; FIG. 3 meningioma
  FDG activity: only trace FDG activity
Meningiomas [1]; FIG. 4 meningioma, panels G-I
  FDG PET activity: increased FDG PET activity
Meningiomas [1]; seven of the 16 meningiomas
  FDG activity: moderate to high FDG activity
non-meningioma tumors [2]; [7]
  uptake on FDG-PET/CT: mild uptake
non-meningioma tumors [2]; FIG. 5 pituitary macroadenoma
  FDG PET/CT result: positive
non-meningioma tumors [2]; melanoma and small cell lung cancer metastases
  FDG PET activity: increased FDG PET activity; also recorded: positive

## [11CH3]Nc1ccc(-c2nc3ccc(O)cc3s2)cc1 [PiB, [N-Methyl-^11C]2-(4′-methylaminophenyl)-6-hydroxybenzothiazole]
Meningiomas [3]; 2.0 cm thick meningioma, focused irradiation 1 month prior to PiB PET/CT
  SUVmax: 3.6
Meningiomas [3]; [8]
  SUVmax range: 1.4-3.6
  average SUVmax (by body weight): 2.2
Meningiomas [3]; Example 1, one of seven presumed meningiomas, small size (~4 mm thick)
  uptake on PET/CT: some uptake
Meningiomas [3]; Example 1, six of seven presumed meningiomas, 241 patient database
  uptake on PET/CT: intense uptake
Meningiomas [3]; Example 2, recurrent orbital meningioma and falx meningioma in one patient
  uptake on PET/CT: avid uptake
Meningiomas [3]; Example 2, total of ten presumed meningiomas
  uptake on PET/CT: show uptake
Meningiomas [3]; Example 3, one patient imaged two times, many months in between
  repeat imaging result: the same positive results
Meningiomas [3]; Example 3, thirteen out of thirteen presumed meningiomas >5 mm within field of view
  uptake on PET/CT: positive uptake
Meningiomas [3]; Example 3, three non-diagnostic presumed meningiomas
  uptake on PET/CT: some positive uptake
Meningiomas [3]; Example 4, two patients imaged with PiB PET/CT more than once
  repeat imaging SUVmax of meningioma: stable or increasing SUVmax
Meningiomas [3]; FIG. 1, Patient #1, right tentorium cerebelli mass
  activity at the meningioma on PET/CT: intense activity
Meningiomas [3]; FIG. 2, Patient #4, tuberculum sellae and planum sphenoidale mass
  activity at the meningioma on PET/CT: intense activity
Meningiomas [3]; FIG. 3, 2.6 cm thick meningioma of the right tentorium
  SUVmax: 2.8
Meningiomas [3]; FIG. 4 meningioma, Panels A-C
  SUVmax: 2.8
Meningiomas [3]; FIG. 4 meningioma, panels G-I
  SUVmax: 3.6
Meningiomas [3]; FIG. 5 Panel A, sella/supracellar region meningioma
  SUVmax: 1.7
Meningiomas [3]; FIG. 5 Panel C, internal auditory canal meningioma
  SUVmax: 1.9
Meningiomas [3]; FIG. 5 Panel E, lateral ventricle meningioma
  SUVmax: 2.1
Meningiomas [3]; FIG. 5 Panel G, post-surgical meningioma recurrence
  SUVmax: 1.5
Meningiomas [3]; all 16 meningiomas identified by strict imaging criteria
  PiB PET/CT result: PiB activity greater than normal adjacent tissues; also recorded: clearly diagnostically positive
Meningiomas [3]; injection and PET/CT imaging
  amount of harmful radiation to the patient: within acceptable limits for diagnostic purposes
[4]; [9]
  fluorescent staining of meningioma tissue: stained brightly positive; also recorded: unique staining pattern
[4]; 100 nM stain, 5 μm sections, fluorescent microscopy, listed as Formula (V)
  fluorescent staining of meningioma tissue: accumulate
[4]
  location of staining within meningioma cells: within the nucleus of the cells of the meningiomas
non-meningioma tumors [5]; Example 1, other tumors
  uptake on PET/CT: little to no uptake
non-meningioma tumors [5]; [7]
  uptake on PET/CT: no uptake
non-meningioma tumors [5]; Example 3, 25 types of tumors and non-neoplastic lesions incl. schwannoma, hamartoma, ependymoma, pituitary adenoma
  uptake on PET/CT: only background uptake or no uptake
non-meningioma tumors [5]; FIG. 4 melanoma metastasis
  SUVmax: 0.9
non-meningioma tumors [5]; FIG. 4 small cell lung cancer metastasis
  SUVmax: 1.1
non-meningioma tumors [5]; FIG. 5 Panel B, pituitary macroadenoma
  SUVmax: 0.9
non-meningioma tumors [5]; FIG. 5 Panel D, schwannoma
  SUVmax: 0.8
non-meningioma tumors [5]; FIG. 5 Panel F, ependymoma
  SUVmax: 0.4
non-meningioma tumors [5]; FIG. 5 Panel H, postoperative changes/scarring
  SUVmax: 0.6
non-meningioma tumors [5]; all non-meningioma intracranial tumors (metastases, pituitary macroadenomas, schwannomas, ependymoma)
  PiB PET/CT result: PiB activity equal or less than normal adjacent tissue; also recorded: negative
non-meningioma tumors [5]; all non-meningioma intracranial tumors identified
  SUVmax: ≤ 1.1
non-meningioma tumors [5]; bony lesions (hemangiomas, fibrous dysplasia, hyperostosis frontalis, osteoma)
  SUVmax: < 1.0
non-meningioma tumors [5]; extra-cranial tumors (sinus polyps, mucus retention cysts, mucocele, Warthin's tumors, inverted papilloma)
  SUVmax: < 1.2
non-meningioma tumors [5]; intracranial metastases (melanoma, small cell lung cancer)
  PiB PET/CT result: negative with low activity
non-meningioma tumors [5]; non-tumorous lesions (strokes, arachnoid cysts, multiple sclerosis lesions)
  PiB activity: only trace PiB activity
non-meningioma tumors [5]; vascular lesions (aneurysms, telangiectasias, cavernomas, venous angiomas)
  SUVmax: ≤ 1.2
Normal adjacent tissues; nearby normal bone
  average SUVmax: 0.6
Normal adjacent tissues; nearby normal grey matter
  average SUVmax: 1.1
Normal adjacent tissues; nearby normal white matter, FIG. 5
  PiB activity: high level of nonspecific PiB activity
Normal adjacent tissues; surrounding cerebrospinal fluid
  average background SUVmax: 0.2

## CNc1ccc(-c2nc3ccc(C#N)cc3s2)cc1 [Formula 6-CN-PiB]
[4]; [9]
  fluorescent staining of meningioma tissue: stained positively; also recorded: intense fluorescence
[4]; 100 nM stain, 5 μm sections, fluorescent microscopy, listed as highly-fluorescent version of the compound of Formula (V)
  fluorescent staining of meningioma tissue: accumulate
[4]; all meningiomas (n=7) vs other intracranial tumors (n=6)
  staining brightness versus other intracranial tumors: qualitatively brighter
[4]; multiple WHO grade I transitional type meningiomas
  fluorescent staining of meningioma tissue: stained positive
[4]
  location of staining within meningioma cells: outside the nuclei, within the cytoplasm and/or cell membrane
[4]; listed as highly-fluorescent version of the compound of Formula (V)
  location of staining within meningioma cells: within the nucleus of the cells of the meningiomas
[6]; amyloid laden cerebral cortex, Alzheimer's disease, beta-amyloid plaques (positive control)
  fluorescent staining: very intense fluorescence
[6]; lung cancer brain metastasis
  fluorescent staining: scattered fluorescence; also recorded: staining in the nuclei of the cells
[6]; normal brain gray matter
  fluorescent staining: almost no fluorescence
[6]; schwannoma, FIG. 6 Panel E
  fluorescent staining: only trace fluorescence
[6]; some other tumors
  fluorescent staining: Moderate 6-CN-PiB binding
